Reference: publication PMC5704959 (ACS chemical biology, 2016)

Target: human Siglec-9 (hSiglec-9-Fc, hSiglec-9) (Homo sapiens, UniProt Q9Y336)
Assay: glycan microarray, fluorescence
Assay type: binding
Conditions: glycan immobilised on epoxide slide; PBS pH 7.4, RT, 2 h

Chain of human Siglec-9 (hSiglec-9-Fc, hSiglec-9) (Q9Y336 18-348 limits assumed): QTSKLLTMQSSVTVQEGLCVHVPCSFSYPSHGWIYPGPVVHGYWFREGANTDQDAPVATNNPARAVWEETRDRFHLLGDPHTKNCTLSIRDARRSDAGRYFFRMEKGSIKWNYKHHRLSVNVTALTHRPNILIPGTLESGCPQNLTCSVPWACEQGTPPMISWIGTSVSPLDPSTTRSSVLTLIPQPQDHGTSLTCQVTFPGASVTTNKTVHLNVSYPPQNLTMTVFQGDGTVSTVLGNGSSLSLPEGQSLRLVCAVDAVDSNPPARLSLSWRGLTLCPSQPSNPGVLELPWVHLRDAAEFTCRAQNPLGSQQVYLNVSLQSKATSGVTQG

CC(=O)N[C@H]1[C@H]([C@H](O)[C@H](O)COC(C)=O)O[C@@](O[C@H]2[C@@H](O)[C@@H](CO)O[C@@H](O[C@H]3[C@H](O)[C@@H](O)[C@H](OCCCN)O[C@@H]3CO)[C@@H]2O)(C(=O)O)C[C@@H]1O [Neu5,9Ac2α3Galβ4GlcβProNH2]
glycan microarray, fluorescence (RFU): observable binding to both Neu5Ac9NAc (black column) and Neu5,9Ac2 (grey column)-containing glycans

CC(=O)N[C@H]1[C@H]([C@H](O)[C@H](O)CO)O[C@@](O[C@H]2[C@@H](O)[C@@H](CO)O[C@@H](O[C@H]3[C@H](O)[C@@H](O)[C@H](OCCCN)O[C@@H]3CO)[C@@H]2O)(C(=O)O)C[C@@H]1O [Neu5Acα3Galβ4GlcβProNH2]
glycan microarray, fluorescence (RFU): hSiglec-9 prefers binding to Neu5Ac-glycan without 9-modification at sialic acid
